In the supplement of paper PMC10307832:

Key:
Test in all cases: relative viability (nuclei count vs DMSO), 5 days (fraction); higher = more cells survive
BGJ398 + AZD7762 = compound: CCN1CCN(c2ccc(Nc3cc(N(C)C(=O)Nc4c(Cl)c(OC)cc(OC)c4Cl)ncn3)cc2)CC1 [BGJ398] + NC(=O)Nc1cc(-c2cccc(F)c2)sc1C(=O)N[C@H]1CCCNC1 [AZD7762] (partner 0.2 µM)
Summary of the method: (§1)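 Relative viability equals treated-well nuclei counts divided by vehicle-well nuclei counts. Counts came from 4× images of lung cancer cell lines grown in 1536-well plates for 5 days after pin-tool dosing on the day after seeding. Dosing used one drug alone or a fixed anchor-drug dose plus five library-drug doses (not always all listed) in √10 steps, and values are medians of duplicate plates.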

BGJ398 + OSI-027 = compound: CCN1CCN(c2ccc(Nc3cc(N(C)C(=O)Nc4c(Cl)c(OC)cc(OC)c4Cl)ncn3)cc2)CC1 [BGJ398] + COc1cccc2cc(-c3nc([C@H]4CC[C@H](C(=O)O)CC4)n4ncnc(N)c34)[nH]c12 [OSI-027] (partner 0.5 µM)
Summary of the method: as §1

[1] = compound: C1=CC2=NC=CN=C2C=C1/C=C/3\C(=O)NC(=O)S3 + CS(=O)(=O)N1CCN(Cc2cc3nc(-c4cccc5[nH]ncc45)nc(N4CCOCC4)c3s2)CC1 [Pictilisib] (partner 1 µM)
Summary of the method: as §1

[2] = compound: C1=CC2=NC=CN=C2C=C1/C=C/3\C(=O)NC(=O)S3 + CCNC(=O)c1noc(-c2cc(C(C)C)c(O)cc2O)c1-c1ccc(CN2CCOCC2)cc1 [Luminespib] (partner 0.01 µM)
Summary of the method: as §1

| Cell Line | relative viability (BGJ398 + AZD7762; first compound 0.01 µM) | relative viability (BGJ398 + AZD7762; first compound 0.03162 µM) | relative viability (BGJ398 + AZD7762; first compound 0.1 µM) | relative viability (BGJ398 + AZD7762; first compound 0.3162 µM) | relative viability (BGJ398 + AZD7762; first compound 1 µM) | relative viability (BGJ398 + OSI-027; first compound 0.01 µM) | relative viability (BGJ398 + OSI-027; first compound 0.03162 µM) | relative viability (BGJ398 + OSI-027; first compound 0.1 µM) | relative viability (BGJ398 + OSI-027; first compound 0.3162 µM) | relative viability (BGJ398 + OSI-027; first compound 1 µM) | relative viability ([1]; first compound 0.02 µM) | relative viability ([1]; first compound 0.06325 µM) | relative viability ([1]; first compound 0.2 µM) | relative viability ([1]; first compound 0.6325 µM) | relative viability ([1]; first compound 2 µM) | relative viability ([2]; first compound 0.02 µM) | relative viability ([2]; first compound 0.06325 µM) | relative viability ([2]; first compound 0.2 µM) | relative viability ([2]; first compound 0.6325 µM) | relative viability ([2]; first compound 2 µM) |
| --- | --- | --- | --- | --- | --- | --- | --- | --- | --- | --- | --- | --- | --- | --- | --- | --- | --- | --- | --- | --- |
| HCC-366 | 0.235 | 0.301 | 0.281 | 0.276 | 0.252 | 0.843 | 0.964 | 0.96 | 0.822 | 0.979 | 0.151 | 0.0838 | 0.14 | 0.11 | 0.117 | – | – | – | – | – |
| HCC-827 | 0.26 | – | 0.212 | 0.121 | 0.256 | 0.633 | – | 0.754 | 0.547 | 0.847 | 1.13 | 0.938 | 0.996 | 0.845 | 0.969 | 0.716 | 0.871 | 0.64 | 0.587 | 0.746 |
| HOP-62 | 0.651 | 0.703 | 0.829 | 0.601 | 0.916 | 0.792 | 0.986 | 0.916 | 0.83 | 0.889 | 0.409 | 0.92 | 0.695 | 0.861 | 0.662 | 0.725 | 0.831 | 0.904 | 0.9 | 0.922 |
| IA-LM | – | – | – | – | – | – | – | – | – | – | – | 0.524 | 0.308 | 0.333 | 0.286 | – | – | – | – | – |
| LC-2-ad | 0.886 | 0.802 | 0.852 | 0.893 | 0.957 | 0.763 | 0.935 | 0.832 | 0.779 | 0.829 | 0.465 | 0.533 | 0.478 | 0.411 | 0.335 | 0.984 | 0.727 | 1.08 | 1.07 | 0.739 |
| NCI-H520 | – | – | – | – | – | 0.198 | 0.243 | 0.183 | 0.147 | 0.176 | 0.306 | 0.356 | 0.32 | 0.242 | 0.246 | 0.204 | 0.22 | 0.257 | 0.191 | 0.248 |
| NCI-H522 | 0.864 | 0.686 | 0.812 | 0.836 | 0.853 | 0.686 | 0.608 | 0.575 | 0.664 | 0.687 | – | – | – | – | – | 1.06 | 1.09 | 1.18 | 1.05 | 0.956 |
| NCI-H661 | – | – | – | – | – | 0.618 | 0.723 | 0.766 | 0.752 | 0.742 | 0.392 | 0.436 | 0.513 | 0.378 | 0.329 | 0.958 | 0.961 | 0.937 | 0.943 | 1.05 |
| NCI-H1299 | – | – | – | – | – | – | – | – | – | – | 0.753 | 0.925 | 0.931 | 0.762 | 0.85 | – | – | – | – | – |
| NCI-H1563 | – | – | – | – | – | 0.703 | 0.788 | 0.785 | 0.672 | 0.665 | 0.663 | 0.659 | 0.691 | 0.635 | 0.634 | 0.512 | 0.469 | 0.514 | 0.438 | 0.509 |
| NCI-H1623 | – | – | – | – | – | 0.45 | 0.384 | 0.414 | 0.386 | 0.452 | – | – | – | – | – | 0.379 | 0.431 | 0.474 | 0.47 | 0.335 |
